Results as given in patent US8173813B2, “Quinolone and tetrahydroquinolone and related compounds having NOS inhibitory activity” (NeurAxon, Inc., priority 2007, dated 2012).
Several values for one entry are separate records, joined by “and”; a condition that tells them apart may be missing. Equal values may be shown once. Where a name gives a salt, the structure may show the parent alone. Read-outs that look alike come from different tables or passages of the source.

Tests used:
Format in all cases: biochemical
iNOS (Mouse) = iNOS (Mouse) (Mus musculus, UniProt P29477); experiment: iNOS (Mouse) enzyme assay; settings: values in parentheses, read-out: iNOS IC50 (rodent data in parentheses)
Experimental: (§1) nNOS (Rat), eNOS (Rat) and iNOS (Mouse) Enzyme Assay Recombinant rat or mouse NO synthases (iNOS, eNOS, nNOS) were expressed in Sf9 cells (Sigma), 36 mg prot/ml (Bradford). […] Inhibition of NOS was determined by measuring the formation of L-[3H] citrulline from L-[3H] arginine. […] Stop buffer:100 mM Hepes, pH 5.5, 3 mM EDTA, 3 mM EGTA. Enzyme and inhibitor were pre-incubated for 35 min in the presence of NADPH before addition of arginine to initiate the reaction.

[1] = target: Nitric oxide synthase (endothelial, human recombinant) eNOS (Homo sapiens, UniProt P29474); experiment: Human eNOS enzyme assay ([3H]L-arginine to [3H]L-citrulline); settings: read-out: heNOS IC50
Sequence of Nitric oxide synthase (endothelial, human recombinant) eNOS (P29474 2-1203): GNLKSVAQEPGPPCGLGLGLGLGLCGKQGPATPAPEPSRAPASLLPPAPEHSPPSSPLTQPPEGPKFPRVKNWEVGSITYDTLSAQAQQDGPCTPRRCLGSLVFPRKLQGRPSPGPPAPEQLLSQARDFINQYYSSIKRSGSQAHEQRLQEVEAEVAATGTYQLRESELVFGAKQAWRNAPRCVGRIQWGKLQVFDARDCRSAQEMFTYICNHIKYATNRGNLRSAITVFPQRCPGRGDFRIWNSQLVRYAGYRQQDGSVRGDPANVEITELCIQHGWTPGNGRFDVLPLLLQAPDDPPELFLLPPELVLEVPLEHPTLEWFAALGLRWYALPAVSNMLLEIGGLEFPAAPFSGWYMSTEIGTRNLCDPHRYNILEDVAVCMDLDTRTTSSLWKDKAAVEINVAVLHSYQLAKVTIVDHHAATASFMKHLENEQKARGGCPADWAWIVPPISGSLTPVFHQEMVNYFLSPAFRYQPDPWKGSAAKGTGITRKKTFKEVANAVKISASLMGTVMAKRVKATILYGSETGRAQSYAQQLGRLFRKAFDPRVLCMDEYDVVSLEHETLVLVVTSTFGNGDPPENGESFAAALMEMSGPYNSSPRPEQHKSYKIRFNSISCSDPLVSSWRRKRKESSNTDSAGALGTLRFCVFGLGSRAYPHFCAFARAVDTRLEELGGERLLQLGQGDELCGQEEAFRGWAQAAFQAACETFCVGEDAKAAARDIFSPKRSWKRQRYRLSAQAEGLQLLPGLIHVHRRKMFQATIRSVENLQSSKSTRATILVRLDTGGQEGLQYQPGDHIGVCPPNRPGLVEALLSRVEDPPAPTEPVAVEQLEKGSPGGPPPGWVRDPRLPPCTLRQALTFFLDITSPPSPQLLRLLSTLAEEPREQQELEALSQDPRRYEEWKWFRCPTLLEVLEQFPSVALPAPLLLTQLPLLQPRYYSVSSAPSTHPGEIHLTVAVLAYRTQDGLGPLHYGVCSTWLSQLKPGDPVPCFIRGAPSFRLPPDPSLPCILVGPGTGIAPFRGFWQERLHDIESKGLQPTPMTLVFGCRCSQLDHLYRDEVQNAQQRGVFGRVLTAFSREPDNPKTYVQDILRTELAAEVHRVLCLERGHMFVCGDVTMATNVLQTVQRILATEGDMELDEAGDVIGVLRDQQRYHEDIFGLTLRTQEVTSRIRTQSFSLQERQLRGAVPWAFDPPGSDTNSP

nNOS (Rat) = nNOS (Rat) (Rattus norvegicus, UniProt P29476); experiment: nNOS (Rat) enzyme assay; settings: for IC50: read-out: nNOS IC50 (rodent data in parentheses); for Selectivity eNOS/nNOS (rodent data in parentheses): rodent enzymes
Experimental: as §1, with “EGTA.” for “EGTA. Enzyme and inhibitor were pre-incubated for 35 min in the presence of NADPH before addition of arginine to initiate the reaction.”

eNOS (Rat) = eNOS (Rat) (Rattus norvegicus, UniProt Q62600); experiment: eNOS (Rat) enzyme assay; settings: values in parentheses, read-out: eNOS IC50 (rodent data in parentheses)
Sequence of eNOS (Rat) (Q62600 2-1202): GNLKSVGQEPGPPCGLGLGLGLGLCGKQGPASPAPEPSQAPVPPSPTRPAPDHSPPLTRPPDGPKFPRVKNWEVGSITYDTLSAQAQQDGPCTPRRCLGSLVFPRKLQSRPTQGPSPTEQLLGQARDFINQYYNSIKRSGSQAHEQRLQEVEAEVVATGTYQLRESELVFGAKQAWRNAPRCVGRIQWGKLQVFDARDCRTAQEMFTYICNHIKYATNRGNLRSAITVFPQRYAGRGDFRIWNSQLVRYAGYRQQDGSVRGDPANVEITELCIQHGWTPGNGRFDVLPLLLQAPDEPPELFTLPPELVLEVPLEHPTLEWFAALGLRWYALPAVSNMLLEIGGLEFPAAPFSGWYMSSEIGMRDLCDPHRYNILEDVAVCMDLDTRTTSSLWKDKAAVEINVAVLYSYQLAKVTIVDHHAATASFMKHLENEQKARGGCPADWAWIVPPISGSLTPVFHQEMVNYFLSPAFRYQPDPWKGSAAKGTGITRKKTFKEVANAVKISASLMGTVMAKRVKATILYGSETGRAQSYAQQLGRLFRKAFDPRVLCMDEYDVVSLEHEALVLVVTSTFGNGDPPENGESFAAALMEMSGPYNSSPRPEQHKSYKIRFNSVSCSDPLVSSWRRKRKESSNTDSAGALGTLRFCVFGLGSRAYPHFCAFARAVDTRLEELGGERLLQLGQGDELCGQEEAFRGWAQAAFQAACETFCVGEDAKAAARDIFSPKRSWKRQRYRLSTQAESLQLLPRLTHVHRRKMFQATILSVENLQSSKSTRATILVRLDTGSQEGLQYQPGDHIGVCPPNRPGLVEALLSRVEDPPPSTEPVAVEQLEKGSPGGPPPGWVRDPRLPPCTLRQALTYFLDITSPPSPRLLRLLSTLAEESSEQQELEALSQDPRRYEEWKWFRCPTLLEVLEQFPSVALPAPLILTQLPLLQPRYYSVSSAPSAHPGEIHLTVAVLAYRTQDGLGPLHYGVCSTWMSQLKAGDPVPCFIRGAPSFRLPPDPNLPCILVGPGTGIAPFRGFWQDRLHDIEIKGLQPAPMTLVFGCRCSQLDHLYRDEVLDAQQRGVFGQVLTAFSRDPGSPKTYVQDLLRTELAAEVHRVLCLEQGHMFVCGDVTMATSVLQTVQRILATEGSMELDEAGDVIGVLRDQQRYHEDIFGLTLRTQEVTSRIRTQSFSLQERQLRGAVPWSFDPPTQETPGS

[2] = target: Recombinant human inducible NOS (iNOS) (Homo sapiens, UniProt P35228); experiment: Human iNOS enzyme assay, radiometric; settings: read-out: hiNOS IC50
Sequence of Recombinant human inducible NOS (iNOS) (P35228 whole entry): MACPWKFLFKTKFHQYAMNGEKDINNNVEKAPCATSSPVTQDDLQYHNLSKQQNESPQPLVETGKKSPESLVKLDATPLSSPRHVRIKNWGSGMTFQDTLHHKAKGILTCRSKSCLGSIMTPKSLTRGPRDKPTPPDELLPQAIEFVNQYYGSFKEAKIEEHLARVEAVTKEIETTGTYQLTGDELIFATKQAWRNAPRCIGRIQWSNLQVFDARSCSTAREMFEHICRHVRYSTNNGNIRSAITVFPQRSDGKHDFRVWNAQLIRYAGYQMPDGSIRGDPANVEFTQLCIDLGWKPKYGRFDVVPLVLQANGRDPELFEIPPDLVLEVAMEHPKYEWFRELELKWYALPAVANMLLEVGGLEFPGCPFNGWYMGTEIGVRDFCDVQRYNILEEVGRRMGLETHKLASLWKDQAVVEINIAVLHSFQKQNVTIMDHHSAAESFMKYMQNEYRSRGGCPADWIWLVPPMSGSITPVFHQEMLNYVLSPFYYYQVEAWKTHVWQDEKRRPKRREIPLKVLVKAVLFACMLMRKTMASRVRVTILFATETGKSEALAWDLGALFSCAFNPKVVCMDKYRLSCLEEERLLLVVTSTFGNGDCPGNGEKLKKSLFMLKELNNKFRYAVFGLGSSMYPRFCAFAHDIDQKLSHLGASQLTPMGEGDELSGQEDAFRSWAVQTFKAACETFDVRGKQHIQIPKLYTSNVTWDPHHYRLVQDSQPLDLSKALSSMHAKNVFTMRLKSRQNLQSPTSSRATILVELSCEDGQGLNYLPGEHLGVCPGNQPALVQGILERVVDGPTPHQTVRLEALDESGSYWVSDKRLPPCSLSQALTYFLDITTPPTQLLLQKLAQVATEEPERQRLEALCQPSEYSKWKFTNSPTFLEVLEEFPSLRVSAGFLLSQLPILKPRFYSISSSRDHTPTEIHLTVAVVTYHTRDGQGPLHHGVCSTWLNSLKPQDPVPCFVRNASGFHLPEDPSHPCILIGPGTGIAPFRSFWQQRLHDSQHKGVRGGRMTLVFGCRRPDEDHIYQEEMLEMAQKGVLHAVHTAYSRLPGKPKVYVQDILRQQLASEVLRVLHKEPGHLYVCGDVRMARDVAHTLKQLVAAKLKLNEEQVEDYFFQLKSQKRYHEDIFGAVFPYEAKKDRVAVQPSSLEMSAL

[3] = target: Nitric oxide synthase (neuronal, human recombinant) nNOS (Homo sapiens, UniProt P29475); experiment: Human nNOS enzyme assay ([3H]L-arginine to [3H]L-citrulline); settings: for Selectivity eNOS/nNOS: human enzymes, ratio of eNOS IC50 to nNOS IC50; for IC50: read-out: hnNOS IC50
Sequence of Nitric oxide synthase (neuronal, human recombinant) nNOS (P29475 whole entry): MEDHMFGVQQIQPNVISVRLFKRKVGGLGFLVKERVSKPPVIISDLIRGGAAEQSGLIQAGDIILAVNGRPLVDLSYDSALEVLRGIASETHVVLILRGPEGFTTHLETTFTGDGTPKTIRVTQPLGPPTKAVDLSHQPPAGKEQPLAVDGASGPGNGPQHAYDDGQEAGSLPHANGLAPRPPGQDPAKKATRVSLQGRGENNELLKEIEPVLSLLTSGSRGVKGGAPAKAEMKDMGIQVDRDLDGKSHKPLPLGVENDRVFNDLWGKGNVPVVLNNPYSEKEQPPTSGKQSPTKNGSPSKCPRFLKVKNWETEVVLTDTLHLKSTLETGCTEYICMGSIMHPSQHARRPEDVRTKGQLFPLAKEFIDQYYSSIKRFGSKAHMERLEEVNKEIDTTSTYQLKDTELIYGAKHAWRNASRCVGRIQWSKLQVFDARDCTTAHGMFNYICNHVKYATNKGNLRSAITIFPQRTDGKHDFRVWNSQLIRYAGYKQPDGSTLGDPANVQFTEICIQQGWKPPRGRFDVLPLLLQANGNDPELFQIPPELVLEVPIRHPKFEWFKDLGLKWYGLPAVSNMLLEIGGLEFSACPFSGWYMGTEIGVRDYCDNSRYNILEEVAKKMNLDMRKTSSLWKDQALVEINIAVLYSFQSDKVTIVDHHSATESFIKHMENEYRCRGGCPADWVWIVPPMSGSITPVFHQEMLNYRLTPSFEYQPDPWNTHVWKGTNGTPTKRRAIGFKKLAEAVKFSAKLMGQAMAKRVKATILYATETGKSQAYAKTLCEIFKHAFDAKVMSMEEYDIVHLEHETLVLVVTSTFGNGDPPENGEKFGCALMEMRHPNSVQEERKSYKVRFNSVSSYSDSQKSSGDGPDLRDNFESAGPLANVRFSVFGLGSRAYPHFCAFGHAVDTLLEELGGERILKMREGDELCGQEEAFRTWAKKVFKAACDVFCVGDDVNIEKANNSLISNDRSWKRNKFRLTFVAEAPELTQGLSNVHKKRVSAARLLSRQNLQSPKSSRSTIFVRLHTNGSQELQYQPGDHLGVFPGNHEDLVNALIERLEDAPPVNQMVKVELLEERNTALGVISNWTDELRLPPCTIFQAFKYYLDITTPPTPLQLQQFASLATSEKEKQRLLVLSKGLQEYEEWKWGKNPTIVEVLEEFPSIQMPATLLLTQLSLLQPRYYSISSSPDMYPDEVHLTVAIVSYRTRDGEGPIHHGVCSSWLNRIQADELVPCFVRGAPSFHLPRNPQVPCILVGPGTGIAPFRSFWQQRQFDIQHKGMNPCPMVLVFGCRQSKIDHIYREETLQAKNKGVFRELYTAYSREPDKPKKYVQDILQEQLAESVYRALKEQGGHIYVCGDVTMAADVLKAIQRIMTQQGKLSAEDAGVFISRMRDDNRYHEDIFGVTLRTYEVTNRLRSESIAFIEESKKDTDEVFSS

[4] = human recombinant eNOS, values without parentheses
[5] = human recombinant nNOS, values without parentheses
[6] = rat nNOS, values in parentheses
[7] = human recombinant iNOS, values without parentheses

Structure (SMILES) | IC50 (iNOS (Mouse)) [µM] | IC50 [1, 4] [µM] | IC50 (nNOS (Rat)) [µM] | Selectivity eNOS/nNOS (rodent data in parentheses) (nNOS (Rat); values in parentheses) | IC50 (eNOS (Rat)) [µM] | IC50 [2] [µM] | Selectivity eNOS/nNOS [3] | IC50 [3, 5] [µM] | IC50 (nNOS (Rat); [6]) [µM] | IC50 [2, 7] | IC50 [1] [µM] | IC50 [3] [µM]
CN1CCCC1CCN1CCCc2cc(NC(=N)c3cccs3)ccc21 (single isomer, unassigned) [Example 24, N-(1-(2-(1-Methylpyrrolidin-2-yl)ethyl)-1,2,3,4-tetrahydroquinolin-6-yl)thiophene-2-carboximidamide] | > 100 | 15.4 | 0.12 | (183) | 22 | 33.2 | 91.7 | 0.17 |  |  |  | 
CN1CCC(N2CCCc3cc(NC(=N)c4cccs4)ccc32)C1 (single isomer, unassigned) [Example 56, N-(1-(1-Methylpyrrolidin-3-yl)-1,2,3,4-tetrahydroquinolin-6-yl)thiophene-2-carboximidamide] |  | 18.3 |  |  | 4.5 |  | 203 | 0.09 | 0.087 | 34 µM |  | 
CN1CCC(N2CCCc3cc(NC(=N)c4cccs4)ccc32)C1 (single isomer, unassigned) [Example 57, N-(1-(1-Methylpyrrolidin-3-yl)-1,2,3,4-tetrahydroquinolin-6-yl)thiophene-2-carboximidamide] |  | 199 |  |  | > 100 |  | 622 | 0.32 | 0.504 | 40.4 µM |  | 
N=C(Nc1ccc2c(c1)CCCN2C1CCNC1)c1cccs1 (single isomer, unassigned; (+)) [Example 66, (+)-N-(1-(pyrrolidin-3-yl)-1,2,3,4-tetrahydroquinolin-6-yl)thiophene-2-carboximidamide dihydrochloride] | 2.9 | 14.2 |  |  |  |  |  | 0.01 | 0.1 |  |  | 
N=C(Nc1ccc2c(c1)CCCN2C1CCNC1)c1cccs1 (single isomer, unassigned; (-)) [Example 65, (−)-N-(1-(pyrrolidin-3-yl)-1,2,3,4-tetrahydroquinolin-6-yl)thiophene-2-carboximidamide dihydrochloride] | 7.5 | 22.5 |  |  | 9.08 |  |  | 0.31 | 0.28 |  |  | 
N=C(Nc1ccc2c(c1)CCC(=O)N2CCN1CCCCC1)c1cccs1 [Example 1, N-(2-oxo-1-(2-(piperidin-1-yl)ethyl)-1,2,3,4-tetrahydroquinolin-6-yl)thiophene-2-carboximidamide] | 8.5 |  |  |  | 52 |  |  |  | 0.022 | 39 µM | 25.2 | 0.78
Cl.Cl.N=C(Nc1ccc2c(c1)CCCN2CCN1CCCC1)c1cccs1 [Example 12, N-(1-(2-(pyrrolidin-1-yl)ethyl)-1,2,3,4-tetrahydroquinolin-6-yl)thiophene-2-carboximidamide dihydrochloride] | > 100 | 36 |  |  | > 100 |  | 115 | 0.31 | 1.9 |  |  | 
CN1CCCC1CCN1CCCc2cc(NC(=N)c3cccs3)ccc21 (centres unmarked) [Example 14, N-(1-(2-(1-methylpyrrolidin-2-yl)ethyl)-1,2,3,4-tetrahydroquinolin-6-yl)thiophene-2-carboximidamide] | > 100 | 17.4 | 0.17 | (206) | 35 | > 100 | 137 |  |  |  |  | 
N=C(Nc1ccc2c(c1)CCCCN2CCN1CCCC1)c1cccs1 [Example 27, N-(1-(2-(Pyrrolidin-1-yl)ethyl)-2,3,4,5-tetrahydro-1H-benzo[b]azepin-7-yl)thiophene-2-carboximidamide] | > 100 | 48.7 |  | (523) | 42.1 | 54.4 | 138 | 0.35 | 0.092 |  |  | 
N=C(Nc1ccc2c(c1)CCCN2C1CCNC1)c1cccs1 (centres unmarked) [Example 29, N-(1-(Pyrrolidin-3-yl)-1,2,3,4-tetrahydroquinolin-6-yl)thiophene-2-carboximidamide dihydrochloride] | > 100 |  |  |  | > 100 |  |  |  | 0.15 | 15.6 µM and 6.94 µM | 23.5 | 0.25
CN1CCC(N2CCCc3cc(NC(=N)c4cccs4)ccc32)C1 (centres unmarked) [Example 35, N-(1-(1-Methylpyrrolidin-3-yl)-1,2,3,4-tetrahydroquinolin-6-yl)thiophene-2-carboximidamide] |  |  |  |  |  |  |  |  |  | 4.9 µM | 27.5 | 0.36
N=C(Nc1ccc2c(c1)CCCC(=O)N2CCN1CCCCC1)c1cccs1 [Example 38, N-(2-Oxo-1-(2-(piperidin-1-yl)ethyl)-2,3,4,5-tetrahydro-1H-benzo[b]azepin-7-yl)thiophene-2-carboximidamide] |  | 148 |  |  |  |  | 14.8 | 10 |  | 8.21 µM |  | 
CN1CCC(N2CCCCc3cc(NC(=N)c4cccs4)ccc32)CC1 [Example 39, N-(1-(1-Methylpiperidin-4-yl)-2,3,4,5-tetrahydro-1H-benzo[b]azepin-7-yl)thiophene-2-carboximidamide] |  |  |  |  |  | 1.34 |  |  |  |  | 20 | 2.96
N=C(Nc1ccc2c(c1)CCCCN2CCN1CCCCC1)c1cccs1 [Example 40, N-(1-(2-(Piperidin-1-yl)ethyl)-2,3,4,5-tetrahydro-1H-benzo[b]azepin-7-yl)thiophene-2-carboximidamide] |  |  |  |  |  |  |  | 1.9 |  | > 100 µM | 56.3 | 
CN(C)CCN1C(=O)CCc2cc(NC(=N)c3cccs3)cc(F)c21 [Example 41, N-(1-(2-(Dimethylamino)ethyl)-8-fluoro-2-oxo-1,2,3,4-tetrahydroquinolin-6-yl)thiophene-2-carboximidamide] |  |  |  |  |  |  |  | 3.3 |  | 3.27 µM | 194 | 
CN(C)CCN1CCCc2cc(NC(=N)c3cccs3)cc(F)c21 [Example 42, N-(1-(2-(Dimethylamino)ethyl)-8-fluoro-1,2,3,4-tetrahydroquinolin-6-yl)thiophene-2-carboximidamide] |  |  |  |  |  |  |  | 0.09 |  | > 100 µM | 24.3 | 
N=C(Nc1ccc2c(c1)C(C1CCNC1)C(=O)N2)c1cccs1 (centres unmarked) [Example 43, N-(2-Oxo-3-(pyrrolidin-3-yl)indolin-5-yl)thiophene-2-carboximidamide] |  | 27.4 |  |  |  |  | 152 | 0.18 |  | 7.03 µM |  | 
N=C(Nc1ccc2c(c1)CCCCN2C1CCNC1)c1cccs1 (centres unmarked) [Example 48, N-(1-(Pyrrolidin-3-yl)-2,3,4,5-tetrahydro-1H-benzo[b]azepin-7-yl)thiophene-2-carboximidamide] |  |  |  |  |  |  |  |  |  | 0.61 µM | 75 | 0.33
CN1CCCC1CCN1CCCc2cc(NC(=N)c3cccs3)cc(F)c21.Cl.Cl (centres unmarked) [Example 55, N-(8-Fluoro-1-(2-(1-methylpyrrolidin-2-yl)ethyl)-1,2,3,4-tetrahydroquinolin-6-yl)thiophene-2-carboximidamide dihydrochloride] |  | 14.5 |  |  |  |  | 181 | 0.08 |  | > 100 µM |  | 
N=C(Nc1ccc2c(c1)CCCCN2C1CCNCC1)c1cccs1 [Example 58, N-(1-(piperidin-4-yl)-2,3,4,5-tetrahydro-1H-benzo[b]azepin-7-yl)thiophene-2-carboximidamide] |  |  |  |  |  |  |  | 2.3 |  | > 100 µM | 66.3 | 
CN(C)CCCN1CCCc2cc(NC(=N)c3cccs3)ccc21 [Example 59, N-(1-(3-(Dimethylamino)propyl)-1,2,3,4-tetrahydroquinolin-6-yl)thiophene-2-carboximidamide] |  |  |  |  |  |  |  | 0.27 |  | 34.5 µM | 22.4 | 
CCNCCN1CCCc2cc(NC(=N)c3cccs3)ccc21 [Example 60, N-(1-(2-(Ethylamino)ethyl)-1,2,3,4-tetrahydroquinolin-6-yl)thiophene-2-carboximidamide] |  | 52.8 |  | (>227) | > 100 |  | 135 | 0.39 | 0.44 | 16.6 µM |  | 
CN(CCO)CCN1CCCc2cc(NC(=N)c3cccs3)ccc21 [Example 62, N-(1-(2-((2-Hydroxyethyl)(methyl)amino)ethyl)-1,2,3,4-tetrahydroquinolin-6-yl)thiophene-2-carboximidamide] | 7 | 63.9 |  |  |  |  | 492 | 0.13 | 0.94 |  |  | 
